Results: paper PMC2783186 (Journal of medicinal chemistry, 2009)

Assays:
PLAP = PLAP (Homo sapiens, UniProt P05187); test: PLAP luminescent assay; type: biochemical
PHOSPHO1 = target: T1, PHOSPHO1 (Homo sapiens, UniProt Q8TCT1); test: PHOSPHO1 counterscreen; type: biochemical; conditions: read-out: Inhibition of PHOSPHO1
T1 sequence (Q8TCT1 1-267): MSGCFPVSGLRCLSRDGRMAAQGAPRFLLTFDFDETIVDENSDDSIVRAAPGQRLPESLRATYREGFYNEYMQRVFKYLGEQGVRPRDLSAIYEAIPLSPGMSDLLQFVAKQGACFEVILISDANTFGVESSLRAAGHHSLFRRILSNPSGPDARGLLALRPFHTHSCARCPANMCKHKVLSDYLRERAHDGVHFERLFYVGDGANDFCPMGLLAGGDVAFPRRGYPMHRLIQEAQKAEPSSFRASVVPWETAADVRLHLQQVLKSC

PAMPA permeability = type: in vitro ADME
[1] = system: Cytochrome P450 2C19 (CYP2C19); conditions: ref PubChem database; cited from earlier work
TNAP [2] = target: T2, TNAP (Homo sapiens, UniProt P05186); test: TNAP luminescent assay; type: biochemical; conditions: relative to lead compound 1
T2 sequence (P05186 18-501 limits assumed): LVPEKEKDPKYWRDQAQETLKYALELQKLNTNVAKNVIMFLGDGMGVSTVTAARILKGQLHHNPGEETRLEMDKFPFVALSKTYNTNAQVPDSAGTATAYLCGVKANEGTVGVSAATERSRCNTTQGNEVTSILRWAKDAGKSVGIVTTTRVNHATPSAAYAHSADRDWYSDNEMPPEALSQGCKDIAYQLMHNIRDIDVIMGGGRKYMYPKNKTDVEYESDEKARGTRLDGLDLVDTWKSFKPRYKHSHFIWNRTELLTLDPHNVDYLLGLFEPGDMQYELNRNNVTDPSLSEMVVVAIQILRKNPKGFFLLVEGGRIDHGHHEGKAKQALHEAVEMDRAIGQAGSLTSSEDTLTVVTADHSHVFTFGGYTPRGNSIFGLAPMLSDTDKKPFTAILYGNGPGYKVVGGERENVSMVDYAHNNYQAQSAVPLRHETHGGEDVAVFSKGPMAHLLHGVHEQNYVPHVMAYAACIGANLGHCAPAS

TNAP [3] = target: T2, TNAP; conditions: cited from earlier work

PLAP, sequence (P05187 23-506 limits assumed): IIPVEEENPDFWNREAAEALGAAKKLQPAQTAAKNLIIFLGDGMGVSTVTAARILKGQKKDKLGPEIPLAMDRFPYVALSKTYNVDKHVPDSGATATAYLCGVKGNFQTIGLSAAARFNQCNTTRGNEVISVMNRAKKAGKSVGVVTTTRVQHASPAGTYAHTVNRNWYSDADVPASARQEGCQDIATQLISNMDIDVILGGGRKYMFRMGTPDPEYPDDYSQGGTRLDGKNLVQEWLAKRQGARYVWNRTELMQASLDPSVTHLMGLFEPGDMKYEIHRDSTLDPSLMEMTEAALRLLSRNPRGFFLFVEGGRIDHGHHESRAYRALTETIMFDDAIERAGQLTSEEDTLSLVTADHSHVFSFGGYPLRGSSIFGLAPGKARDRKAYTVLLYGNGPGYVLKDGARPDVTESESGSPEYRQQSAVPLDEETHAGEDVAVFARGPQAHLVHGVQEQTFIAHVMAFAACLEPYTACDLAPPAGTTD

SMILES | PAMPA (% FLUX) (PAMPA permeability) | TNAP inhibitory activity (in words) (TNAP [2]) | other results
COc1ccc(OC)c(S(=O)(=O)Nc2cnc3ccccc3c2)c1 [Compound 1, 2,5-Dimethoxy-N-(quinolin-3-yl)benzenesulfonamide] | 58 % FLUX |  | IC50 (PLAP): > 100 µM; inhibition at 10 µM (PHOSPHO1): < 7.4%; Activity in Cytochrome P450 2C19 assay [1]: showed activity
COc1ccc(OC)c(S(=O)(=O)Nc2ccc3ccccc3c2)c1 [Compound 12, 2,5-Dimethoxy-N-(naphthalen-2-yl)benzenesulfonamide] |  | loss of activity | 
COc1ccc(OC)c(S(=O)(=O)Nc2ccc3ncccc3c2)c1 [Compound 13, 2,5-Dimethoxy-N-(quinolin-6-yl)benzenesulfonamide] |  | loss of activity | 
COc1cccc(S(=O)(=O)Nc2cnc3ccccc3c2)c1 [Compound 15, 3-Methoxy-N-(quinolin-3-yl)benzenesulfonamide] |  | dramatic loss of activity | 
COc1ccc(OC)c(NS(=O)(=O)c2cnc3ccccc3c2)c1 [Compound 16, N-(2,5-Dimethoxyphenyl)quinoline-3-sulfonamide] |  | abolished the inhibitory activity | 
COc1ccc(OC)c(CNc2cnc3ccccc3c2)c1 [Compound 17] |  | abolished the inhibitory activity | 
COc1ccc(Br)cc1S(=O)(=O)Nc1cnc2ccccc2c1 [Compound 18, 5-Bromo-2-methoxy-N-(quinolin-3-yl)benzenesulfonamide] | 54 % FLUX |  | 
COc1ccc(C)cc1S(=O)(=O)Nc1cnc2ccccc2c1 [Compound 19, 2-Methoxy-5-methyl-N-(quinolin-3-yl)benzenesulfonamide] | 7 % FLUX |  | 
NC(N)=NCCCC[C@H](N)C(=O)O [L-homoarginine] |  |  | Mode of inhibition versus phosphate-donor substrate (TNAP [3]): uncompetitive
c1ccc([C@H]2CN3CCSC3=N2)cc1 [levamisole] |  |  | Mode of inhibition versus phosphate-donor substrate (TNAP [3]): uncompetitive
